Measurements reported in article PMC9231250, “Cardio- and Neurotoxicity of Selected Anti-COVID-19 Drugs” (Pharmaceuticals, 2022).
Counter-ions that a name gives are not always drawn. Like-named read-outs stand apart in the source and are kept apart here.

Assays:
[1] = tested on: Vero (African monkey epithelial) cells; conditions: cited from earlier work
[2] = following the clinical dosing regimen; cited from earlier work
[3] = tested on: Huh7.5 (human epithelial-like) cells; conditions: Huh7.5 cells; cited from earlier work
hiPSC-NEURs [4] = test: Neurotoxicity screen, CellTiter-Glo cell viability in hiPSC-derived neurons; conditions: for IC50: Homo sapiens, Neuron
hiPSC-CMs [5] = test: Cardiotoxicity screen, CellTiter-Glo cell viability in hiPSC-derived cardiomyocytes; conditions: 24 h; for IC50: Homo sapiens, Cardiomyocyte, read-out: cardiotoxicity IC50; for cardiotoxicity (in words): hiPSC-CMs, CellTiter-Glo
COVID-19 patients = conditions: cited from earlier work
hiPSC-NEURs [6] = tested on: hiPSC-NEURs
hiPSC-CMs [7] = tested on: hiPSC-CMs
[8] = 24 h, read-out: neurotoxicity IC50
[9] = hiPSC-NEURs, 24 h, CellTiter-Glo

| Structure (SMILES) | cell toxicity [1] | plasma concentration, lower end [2] [µM] | plasma concentration, upper end [2] [µM] | cell toxicity [3] | IC50 (hiPSC-NEURs [4]; [8]) [µM] | IC50 (hiPSC-NEURs [4]; read-out: neurotoxicity, individual variability between individuals (lowest)) [µM] | neurotoxicity (in words) (hiPSC-NEURs [4]; [9]) | IC50 (hiPSC-CMs [5]) [µM] | cardiotoxicity (in words) (hiPSC-CMs [5]) | adverse effects on the cardiovascular system (COVID-19 patients) | neurotoxicity (in words) (hiPSC-NEURs [6]) | cardiotoxicity (in words) (hiPSC-CMs [7]) | in-hospital mortality (COVID-19 patients; COVID-19 patients, 200 mg three times per day) | neurotoxicity (in words) (hiPSC-NEURs [4]; hiPSC-NEURs, 24 h, CellTiter-Glo, listed as Hydroxychloroquine) | further neurotoxicity on addition of azithromycin (hiPSC-NEURs [4]; hiPSC-NEURs, combined with 5 µM or 10 µM azithromycin, 24 h, CellTiter-Glo) | further neurotoxicity on addition of azithromycin (hiPSC-NEURs [6]) |
| --- | --- | --- | --- | --- | --- | --- | --- | --- | --- | --- | --- | --- | --- | --- | --- | --- |
| CCC(CC)COC(=O)[C@H](C)N[P@](=O)(OC[C@H]1O[C@@](C#N)(c2ccc3c(N)ncnn23)[C@H](O)[C@@H]1O)Oc1ccccc1 [remdesivir] | did not observe cell toxicity | ≥ 16.7 | ≤ 1700 | did not observe cell toxicity | 41 | 3 | Neurotoxic | 51 | Cardiotoxic | hypotension, atrial fibrillation rhythm, and sinus bradycardia |  |  |  |  |  |  |
| CCOC(=O)c1c(CSc2ccccc2)n(C)c2cc(Br)c(O)c(CN(C)C)c12 [arbidol, arbidol hydrochloride] |  |  |  |  | 42 |  |  | 61 |  |  | Neurotoxic | Cardiotoxic | increased risk of in-hospital mortality |  |  |  |
| CCN(CCO)CCCC(C)Nc1ccnc2cc(Cl)ccc12 (stereo not shown) [hydroxychloroquine] | observe toxicity |  |  | observe toxicity | 52 |  | toxicity in neurons |  | not cardiomyocytes |  |  |  |  | Neurotoxic | did not induce further neurotoxicity |  |
| CCN(CC)CCCC(C)Nc1ccnc2cc(Cl)ccc12 (stereo not shown) [chloroquine] |  |  |  |  | 71 |  |  |  |  |  | Neurotoxic |  |  |  |  | did not induce further neurotoxicity |
